Reference: the NIST ThermoML archive (doi:10.1021/je700741x)
± gives the expanded uncertainty stated by the source.

Settings: 298.15 K; 101.33 kPa; Liquid

Row | mass density [kg/m3] | SMILES
1 | 774 ± 1 | C1CCCCC1 [cyclohexane]
2 | 785.2 ± 1 | CCO [ethanol]
3 | 1382.4 ± 1.6 | OCC(F)(F)F [2,2,2-trifluoroethanol]
4 | 781.4 ± 1.1 | CC(C)O [propan-2-ol]
